Experimental data published in patent US10070645B2, “N-cycloalkyl-N-{[2-(1-substitutedcycloalkyl)phenyl]methylene}-(thio)carboxamide derivatives” (BAYER CROPSCIENCE AKTIENGESELLSCHAFT, priority 2013, dated 2018).

Tests used:
Puccinia recondita = assay: In vivo preventive test on Puccinia recondita (brown rust on wheat); details: for protection: dose of 100 and 10 ppm of active ingredient
Procedure: In Vivo Preventive Test on Puccinia recondita (Brown Rust on Wheat)
(§1) Solvent: 5% by volume of Dimethyl sulfoxide • 10% by volume of Acetone
(§2) Emulsifier: 1 μL of Tween® 80 per mg of active ingredient
The active ingredients are made soluble and homogenized in a mixture of Dimethyl sulfoxide/Acetone//Tween® 80 and then diluted in water to the desired concentration.
The young plants of wheat are treated by spraying the active ingredient prepared as described above. Control plants are treated only with an aqueous solution of Acetone/Dimethyl sulfoxide/Tween® 80. After 24 hours, the plants are contaminated by spraying the leaves with an aqueous suspension of Puccinia recondita spores. The contaminated wheat plants are incubated for 24 hours at 20° C. and at 100% relative humidity and then for 10 days at 20° C. and at 70-80% relative humidity.
(§3) The test is evaluated 11 days after the inoculation. 0% means an efficacy which corresponds to that of the control plants while an efficacy of 100% means that no disease is observed.

Uromyces appendiculatus = assay: In vivo preventive test on Uromyces appendiculatus (bean rust); details: for protection: dose of 100 and 10 ppm of active ingredient
Procedure: In Vivo Preventive Test on Uromyces appendiculatus (Bean Rust)
as §1, §2
The active ingredients are made soluble and homogenized in a mixture of Dimethyl sulfoxide/Acetone/Tween® 80 and then diluted in water to the desired concentration.
The young plants of bean are treated by spraying the active ingredient prepared as described above. Control plants are treated only with an aqueous solution of Acetone/Dimethyl sulfoxide/Tween® 80.
After 24 hours, the plants are contaminated by spraying the leaves with an aqueous suspension of Uromyces appendiculatus spores. The contaminated bean plants are incubated for 24 hours at 20° C. and at 100% relative humidity and then for 10 days at 20° C. and at 70-80% relative humidity.
as §3

[1] = log P by HPLC on a reversed-phase column (C 18), EEC Directive 79/831 Annex V.A8; type: physicochemical; details: HPLC, reversed-phase column (C 18), 40° C., 0.1% aqueous formic acid and acetonitrile, linear gradient 10% to 90% acetonitrile
Method in brief: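 Reversed-phase C18 HPLC at 40° C, 0.1% aqueous formic acid/acetonitrile gradient from 10% to 90% acetonitrile. log P derived from retention times by linear interpolation between unbranched alkan-2-ones (3–16 carbons) of known log P.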

logP [1]	SMILES	Efficacy (Puccinia recondita; Table A1, dose 10 ppm) [%]	Efficacy (Puccinia recondita; Table A1, dose 100 ppm) [%]	protection (Puccinia recondita; listed as I.8)	Efficacy (Uromyces appendiculatus; Table B2, dose 10 ppm) [%]	Efficacy (Uromyces appendiculatus; Table B2, dose 100 ppm) [%]	protection (Uromyces appendiculatus; listed as I.8)	protection (Puccinia recondita)	protection (Uromyces appendiculatus)
	Cn1nc(C(F)F)c(C(=O)N(Cc2cc(F)ccc2C2(C)CC2)C2CC2)c1Cl [I.8 from WO-2013/156559, 5-chloro-N-cyclopropyl-3-(difluoromethyl)-N-[5-fluoro-2-(1-methylcyclopropyl)benzyl]-1-methyl-1H-pyrazole-4-carboxamide, reference compound]	38	94	total to average (less than 40%) protection	14	95	total to poor (less than 20%) protection		
4.04	Cn1nc(C(F)F)c(C(=O)N(Cc2cc(F)ccc2C2(C)CC2)C2CC2)c1Cl [I.067]	98	100		93	100		at least 90%	at least 90%
